Source: US20240306639A1, “USE OF FLUAZIFOP-P-BUTYL FOR INSECT CONTROL” (priority 2021, published 2024)

Tested on: Bemisia tabaci (Silverleaf whitefly)
Assay: Curative control of Bemisia tabaci second nymph stage (N2) on French beans, spray application
Assay type: in vivo
Text: Examples 1 to 3 describe biological tests relating to the curative and preventative control of a series of insects with the spray application of dilutions of a formulation containing fluazifop-P-butyl as sole active ingredient (EC125 formulation (FUSILADE MAX®)) in combination with OCHIMAR adjuvant (Syngenta-alkyl ester of phosphoric acid (752 g/L EC formulation)) to bean or cabbage plants infested with Bemisia tabaci, Frankliniella occidentalis or Myzus persicae. The testing protocols and insect control effects are shown. • ai=active ingredient (fluazifop-P-butyl).
Curative control of Bemisia tabaci (Silverleaf whitefly), second nymph stage (N2), treated on French beans (BBCH12):
• All treatments including check were applied with 250 mL adjuvant (Ochima) per hectare (ha).

In the case of `CCCCOC(=O)[C@@H](C)Oc1ccc(Oc2ccc(C(F)(F)F)cn2)cc1` [fluazifop-P-butyl, butyl (2R)-2-[4-[5-(trifluoromethyl)pyridin-2-yl]oxyphenoxy]propanoate], the “efficacy against whiteflies compared to thrips or aphids” value (conclusion from the data in Tables 1 to 3) is reported as “selective efficacy” and the controlling whitefly (effect enhanced compared to aphids and thrips) is reported as “highly effective”.
